In ChEMBL document CHEMBL1131389, “Unusual synthesis of new glycine antagonists via sequential aldol condensation-lactonization-elimination reaction” (Bioorg Med Chem Lett, 1998):

Molecular target: Glutamate receptor ionotropic, NMDA 1 (Rattus norvegicus) (UniProt P35439)
Experiment: In vitro affinity of compound for the glycinergic site associated with NMDA receptor was assessed by inhibition of the binding of [3H]glycine

Row | pKi | Structure (SMILES)
1 | 7.5 | O=C(O)c1[nH]c2cc(Cl)cc(Cl)c2c1/C=C1\CCN(c2ccccc2)C1=O
2 | 7.3 | O=C(O)c1[nH]c2cc(Cl)cc(Cl)c2c1/C=C1\CCCN(c2ccccc2)C1=O
